# Data: ChEMBL document CHEMBL1817565, “Synthesis and antimalarial evaluation of novel benzopyrano[4,3-b]benzopyran derivatives” (Bioorg Med Chem, 2011)
# Assays:
# Plasmodium falciparum = experiment: Antimalarial activity against chloroquine-sensitive Plasmodium falciparum 3D7 infected in erythrocytes assessed as [3H] incorporation after 48 hrs by scintillation counter; assay type: functional, organism-based
# [1] = Cytotoxicity against human NFF cells at 50 uM after 3 days by sulforhodamine B assay; assay type: cell-based; settings: read-out: INH
# [2] = Selectivity ratio of cytotoxicity against human NFF cells to IC50 for Plasmodium falciparum 3D7; assay type: cell-based
SMILES,IC50 (Plasmodium falciparum),"cytotoxicity at 72 h, 50 µM [1]",selectivity ratio [2]
COc1cc(OC)c2c(c1OC)O[C@H]1c3c(OC)cc(OC)c(OC)c3O[C@H](c3ccc(Br)cc3)[C@H]1[C@@H]2/C=C/c1ccc(Br)cc1,2.9 µM,46.3%,10
COc1cc(OC)c2c(c1OC)O[C@H]1c3c(OC)cc(OC)c(OC)c3O[C@H](c3ccc(Cl)cc3)[C@H]1[C@@H]2/C=C/c1ccc(Cl)cc1,3.3 µM,98.4%,
COc1ccc(/C=C/[C@@H]2c3c(OC)cc(OC)c(OC)c3O[C@H]3c4c(OC)cc(OC)c(OC)c4O[C@H](c4ccc(OC)cc4)[C@@H]23)cc1,3.2 µM,43.2%,10
COc1cc(OC)c2c(c1OC)O[C@H]1c3c(OC)cc(OC)c(OC)c3O[C@H](c3ccc(C)cc3)[C@H]1[C@@H]2/C=C/c1ccc(C)cc1,1.9 µM,47.2%,10
COc1cc(OC)c2c(c1OC)O[C@H]1c3c(OC)cc(OC)c(OC)c3O[C@H](c3ccccc3)[C@H]1[C@@H]2/C=C/c1ccccc1 [DEPENDENSIN],3.9 µM,46.9%,10
